Entries after “also recorded” stand apart in the source; their conditions may differ.

Data set [1] relates to HCMEC/D3 cells. The data set is described as follows: Cell cycle analysis via flow cytometry of HCMEC/D3. The format is cell-based, human. Conditions: BIA 0.5 μM or 1 μM. How it is done: Flow cytometry for cell cycle, DNA damage and apoptosis assays: For cell cycle analysis, 100,000 HCMEC/D3 cells were plated in 6-well plates and treated with indicated concentrations of BIA or control for 48 hours. Then, cells were washed twice with PBS and fixed/permeabilized with 5 mL of cold 70% ethanol added dropped-wise while vortexing at low speed. Cells were stored for 1 day at −20 degrees Celsius, washed three times with PBS and treated with 20 μg/mL RNAse I (Thermo Fisher Scientific) and stained with anti-Ki-67 FITC-conjugated (1:1000) (BD Biosystems) and 1.5 μM propidium iodide (Thermo Fisher Scientific). Amer 30 minutes of incubation in the dark, cells were analyzed using a CytoFLEX system (Beckman Coulter). 50,000 events were counted, and data was analyzed using the CytoFLEX system software (Beckman Coulter).
A general note: In flow cytometry, cells or beads pass a laser one at a time.

For the next data set, the system named is murine GBM models. To be noted: cited from earlier work.
A further data set relates to BBB spheroids. The data set is described as follows: BBB spheroids staining and dextran permeability assay. It counts as cell-based, human. Conditions: BIA 72 hours. How it is done:
BBB spheroids and dextran permeability assay: BBB spheroids were grown and cultured with a FITC-conjugated (70 kDa) fluorescent dextran (Millipore Sigma) as previously reported.^51,86,87 BBB spheroids were grown for 48 hours and then treated with BIA at increasing doses for 72 hours. Then, spheroids were collected and stained as indicated above for CDH5 and F-actin (Phalloidin). In the case of fluorescent dextran incubation, BBB spheroids were collected in 1.5 mL microtubes (Eppendorf) and incubated for 3 hours at 37 degrees Celsius. Pictures were taken by confocal microscopy. For dextran permeability measurement, 21 images using Z-stack layers of 5 μm intervals for achieving a total depth of 100 μm within the sphere. Fluorescent-dextran intensity from maximal intensity projection was quantified using Image J (National Institute of Health).

Data set [2] deals with HCMEC/D3 cells. As to the kind of experiment: Flow cytometry of late apoptosis by Sytox Blue staining. It counts as cell-based, human. Conditions: any of the used BIA doses, 72 hours, vs cisplatin control. How it is done: For apoptosis assessment, […]3 cells were treated as indicated above for 72 hours with BIA at indicated doses. Cells were collected from the 6-well plates and washed three times with PBS. Then, incubated with SYTOXTM Blue nucleic acid stain (5 mM) with a dilution of 1:1000 for 15 minutes. Cells were submitted and analyzed in the CytoFLEX system and its software as indicated above.

Data set [3] deals with hCMEC/D3 brain microvascular endothelial cells. As to the kind of experiment: ECIS electrical impedance of endothelial monolayers (Example 1). To be noted: BiA 1 μM, p<0.05. The format is cell-based, human. How it is done: Electrical Impedance Measurements: Human Brain microvascular endothelial cell (purchased from Sciencell) monolayers were plated on special culture chambers on top of opposing circular gold electrodes (Applied Biophysics Inc). Impedance was automatically recorded during cell monolayer formation.
The in vitro effects of indirubin on endothelial monolayer permeability were also assess using Electric Cell-substrate Impedance Sensing (ECIS®) to provide a real-time, label-free, impedance-based study of cell behaviors in tissue culture. BiA (1 μM) was added to endothelial monolayers in an ECIS impedance measurement culture system (Applied Physics).

The subject of data set [4] is HCMEC/D3 cells. As to the kind of experiment: Platinum levels in brain endothelial cells treated with BIA and cisplatin. The format is cell-based, human. Conditions: 2 μM BIA and cisplatin simultaneously.
For the next data set, the system named is G30 tumor-bearing mice. The data set is described as follows: Sodium fluorescein (NaF) BTB permeability study. The format is in vivo. How it is done:
In vivo studies: For intra-cranial tumor implantation, GBM neuro-spheres were grown to 70% confluency before dissociated into single cell on the day of surgery. 50,000 cells were resuspended in 3 μl of sterile PBS and injected intracranially into the striatum (2 mm right hemisphere, 1 mm frontal, 3 mm depth from bregma) of mice under anesthesia and stereo-tactically fixed. Tumors were left to grow for approximately 2-3 weeks, depending the cell line. Animals were randomized to treatment groups. BIA injections consisted of 20 mg/kg (i.p.), except if indicated otherwise. PPRX-1701 was administered at 20 mg/kg (i.v.) via lateral tail-vein. Cisplatin injections were performed at 5 mg/kg (maximum tolerated dose, i.p.). […]
Sodium fluorescein (NaF) BTB permeability studies: NaF was administered to G30 tumor-bearing mice intravenously (i.v.) via lateral tail vein at 20 mg/kg. Then, 30 minutes after administration when peak fluorescence is reached in the brain, mice were euthanized for immediate brain tissue harvest. […] Quantification of pixel intensities from acquired images was performed in ImageJ. Tissue samples were then homogenized in 1 mL of 60% trichloroacetic acid in PBS and measured at 488 nm in a Molecular Devices SpectraMax M2 plate reader.

Data set [5] deals with HCMEC/D3 cells. The data set is described as follows: Trans-endothelial electrical resistance (TEER) of HCMEC/D3 monolayers. The format is cell-based, human. How it is done: Trans-endothelial electrical resistance: HCMEC/D3 or HBMEC cells were plated in 8W10E+ PET 8-well arrays (Applied Biophysics) at a density of 100,000 cells/well in 500 μl. These arrays were placed in a pre-stabilized ECIS Z-Theta instrument (Applied Biophysics). Using the ECIS Z-Theta software (Applied Biophysics), measurements were set to 4000 and 64000 Hz every 30 minutes. […] Cells would then be treated with BIA and left to grow up to 5 days, with frequent drug-containing media re-addition for maintenance of the culture. Resistance (W) and capacitance (nF) were recorded and plotted.

Data set [6] is described as follows: Hydrophobicity / dissolution in physiological solutions. It counts as physicochemical. To be noted: difficult to dissolve in physiological solutions.
Data set [7] deals with HCMEC/D3 cells. The data set is described as follows: Human phospho-kinase array of HCMEC/D3 cells. It counts as cell-based. How it is done: Phospho-kinase array: HCMEC/D3 cells were plated at a density of 1 million cells and treated with either 1 μM BIA or vehicle DMSO for 24 hr. Cell lysates were collected with manufacturer provided Lysis Buffer 6 supplemented with 10 μg/mL Aprotinin (Tocris), 10 μg/mL Leupeptin hemisulfate (Tocris) and 10 μg/mL Pepstatin A (Tocris) for protein preservation. 50 μg of lysate from each sample were loaded into each membrane. All experiment procedures were performed using the Proteome Profiler Human Phospho-Kinase Array Kit (R&D Systems) following manufacturer's protocol.

Data set [8] concerns HCMEC/D3 cells. As to the kind of experiment: Visual assessment (brightfield) of HCMEC/D3 cells. The format is cell-based, human. Conditions: BIA 72 hours; elongated phenotype with long filipodia.

`CC(=O)ON=C1C(=C2C(=O)Nc3cc(Br)ccc32)Nc2ccccc21` [BIA, 6-bromoindirubin acetoxime]: the cell cycle states entry with HCMEC/D3 cells [1] was “slight decreased G1 and M states”. For the same compound, the “tumor migration and growth (previously reported)” value with murine GBM models (GBM in vitro and in vivo) was “halted tumor migration and growth in vitro and in vivo”. In addition, the “angiogenesis of intra-cranial murine GBM models (previously reported)” value in the data set on murine GBM models (mouse, in vivo) is on record as “reduced angiogenesis”. In addition, in the data set on BBB spheroids, the “CDH5 expression in BBB spheroids (IF)” value is given as “decreased the expression of CDH5 in a dose-dependent manner” and the “F-actin in BBB spheroids (Phalloidin)” value is reported as “reduced considerably”. Also, in the data set on BBB spheroids (dextran 3 hours), the “FITC-dextran (70 kDa) permeability of BBB spheroids” value is reported as “dose-dependent increase in permeability”. Moreover, the late apoptosis/necrosis entry in the data set with HCMEC/D3 cells [2] is “did not show late apoptosis/necrosis”. In data set [3], the “trans-endothelial electrical resistance / impedance” value was “significantly decrease trans-endothelial electrical resistance; also recorded: diminishes electrical impedance”. Also, in the data set with HCMEC/D3 cells [4], the “cellular drug (platinum) accumulation due to BIA addition” value is on record as “did not observe any advantage in drug accumulation”. Besides, the “NaF fluorescent signal in healthy brain” value in the data set on G30 tumor-bearing mice (after BIA administration) was “not in healthy brain”. In addition, the “NaF fluorescent signal in the tumor” value in the data set with G30 tumor-bearing mice (after BIA administration vs untreated controls) is listed as “significant accumulation in the tumor”. For the same compound, the “barrier establishment (TEER), BIA added 24 hours after plating” value in the data set with HCMEC/D3 cells [5] is given as “prevented barrier establishment”. Also, in the data set with HCMEC/D3 cells [5] (BIA added at monolayer confluence (~110 hrs)), the “barrier formation (TEER), BIA added to confluent monolayers” value is “marked decreased of barrier formation”. In addition, the hydrophobicity result in [6] is recorded as “highly hydrophobic”. Also, the “activity of endothelial nitric oxide synthase (eNOS) and the p38a/CREB axis” value in the data set on HCMEC/D3 cells [7] is listed as “decreased activity”. Also, in the data set with HCMEC/D3 cells [7] (1 μM BIA, 24 hours), the “phosphorylation of MAPK family (p38a, JNK1, MSK1/2, ERK1/2), SRC family (SRC, YES, FGR) and transcription factors (CREB, STAT1, STAT2, STAT5a/b, c-JUN)” value is “decrease of activating phosphorylation”; the “phosphorylation of STAT3 and p70 S6 kinase” value was “phosphorylation of STAT3 at S727 and Y705”. Also, in the data set on HCMEC/D3 cells [8], the “signs of apoptosis or necrosis by visual assessment” value is given as “did not show signs of apoptosis or necrosis”.
